According to US20130064907A1, “COMBINATIONS OF ANTIFUNGAL COMPOUNDS AND TEA TREE OIL” (priority 2010, published 2013):

Experiments:
Type in all cases: in vivo
[1] = test system: pepper powdery mildew; experiment: Pepper Powdery Mildew - Site 2, foliar sprays; settings: 15 days from ninth application; TG 0.3%, Trifloxystrobin 20 gr/dunam, Myclobutanil 60 gr/dunam, alone or combined with TG
Description: Various combinations of TTO (supplied as Timorex Gold®) and synthetic fungicidal compositions (supplied as commercial products to be diluted by the end user prior to use) were tested against tomato powdery mildew and pepper powdery mildew. Open field or greenhouse-grown plants of the crops studied were drip irrigated and fertilized according to known recommendations for each crop. Treatments were applied in a randomized complete block, with 5 replications per treatment. Plot size in each instance was of 5-10 m length, containing 6-20 plants, depending on the crop. Fungicidal treatment was applied using backpack sprayer equipped with a mist blower (STHIL 340) to spray a volume of 600 liter/ha, depending on the crop. […] Disease severity was evaluated by determining the leaf area covered with powdery mildew (disease severity) on each of 20 leaves randomly selected per each replicate. […] To analyze the results, an arc-sin transformation was performed on the raw data, and analysis of variance (ANOVA) using the SAS GLM procedure was applied to the transformed data. The Tukey-Kramer Test was applied to determine whether differences between treatments were significant. In the tables, “a”, “b” and “c”, refer to differences in statistical analysis that are familiar to users of the Tukey-Kramer test; “SF” is the “synergy” factor, calculated using the Abbott formula (SF=observed efficacy (Eobs)/expected efficacy (Eexp), where Eexp=α+β−[…], where α and β denote the levels of control afforded by materials α and β, respectively, alone; see e.g. Levy et al., EPPO Bull. 16, 651-657 (1986)).

[2] = test system: pepper powdery mildew; experiment: Pepper Powdery Mildew - Site 1, foliar sprays; settings: 14 days from third application; TG 0.3%, Triadimenol 75 cc/dunam, Azoxystronin 50 cc/dunam, Trifloxystrobin 20 cc/dunam, alone or combined with TG
Description: (§1) Various combinations of TTO (supplied as Timorex Gold®) and synthetic fungicidal compositions (supplied as commercial products to be diluted by the end user prior to use) were tested against tomato powdery mildew and pepper powdery mildew. Open field or greenhouse-grown plants of the crops studied were drip irrigated and fertilized according to known recommendations for each crop. Treatments were applied in a randomized complete block, with 5 replications per treatment. Plot size in each instance was of 5-10 m length, containing 6-20 plants, depending on the crop. Fungicidal treatment was applied using backpack sprayer equipped with a mist blower (STHIL 340) to spray a volume of 600 liter/ha, depending on the crop. From three to eight foliar sprays were applied at 7-14 day intervals, depending on the crop. Disease severity was evaluated by determining the leaf area covered with powdery mildew (disease severity) on each of 20 leaves randomly selected per each replicate. […] To analyze the results, an arc-sin transformation was performed on the raw data, and analysis of variance (ANOVA) using the SAS GLM procedure was applied to the transformed data. The Tukey-Kramer Test was applied to determine whether differences between treatments were significant. In the tables, “a”, “b” and “c”, refer to differences in statistical analysis that are familiar to users of the Tukey-Kramer test; “SF” is the “synergy” factor, calculated using the Abbott formula (SF=observed efficacy (Eobs)/expected efficacy (Eexp), where Eexp=α+β−[…], where α and β denote the levels of control afforded by materials α and β, respectively, alone; see e.g. Levy et al., EPPO Bull. 16, 651-657 (1986)).

[3] = test system: tomato powdery mildew; experiment: Tomato Powdery Mildew - Site 1, foliar sprays; settings: 12 days from fourth application; TG 0.3%, Azoxystrobin 50 cc/dunam, alone or combined
Description: as §1

Row | SMILES | Incidence: % leaves infected [1] | Incidence: Efficacy (%) [1] | Severity: % infected leaf area [1] | Severity: Efficacy (%) [1] | Incidence: % leaves infected [2] | Incidence: Efficacy (%) [2] | Severity: % infected leaf area [2] | Severity: Efficacy (%) [2] | Incidence: % leaves infected [3] | Incidence: Efficacy (%) [3] | Severity: % infected leaf area [3] | Severity: Efficacy (%) [3]
1 | CCCCC(C#N)(Cn1cncn1)c1ccc(Cl)cc1 (stereo not drawn) [Myclobutanil] | 2% | 96.9% | 0% | 100.0% | – | – | – | – | – | – | – | –
2 | CON=C(C(=O)OC)c1ccccc1CON=C(C)c1cccc(C(F)(F)F)c1 [Trifloxystrobin] | 2% | 96.9% | 0.1% | 99.6% | 25% | 70.1% | 1.9% | 92.2% | – | – | – | –
3 | CC(C)(C)C(O)C(Oc1ccc(Cl)cc1)n1cncn1 (stereo not drawn) [Triadimenol] | – | – | – | – | 48.7% | 41.8% | 8.4% | 65.6% | – | – | – | –
4 | CO/C=C(/C(=O)OC)c1ccccc1Oc1cc(Oc2ccccc2C#N)ncn1 [Azoxystrobin] | – | – | – | – | 22.5% | 73.1% | 2.9% | 88.1% | 45% | 55.0% | 5% | 91.7%
